Test results published in the supplement of paper PMC10307832.

Tests used:
Experiment in all cases: relative viability (nuclei count vs DMSO), 5 days (fraction); higher = more cells survive
[1] = compound: CC1=C(N=C(N=C1N)[C@H](CC(=O)N)NC[C@@H](C(=O)N)N)C(=O)N[C@@H]([C@H](C2=CN=CN2)OC3C(C(C(C(O3)CO)O)O)OC4C(C(C(C(O4)CO)O)OC(=O)N)O)C(=O)N[C@H](C)[C@H]([C@H](C)C(=O)N[C@@H]([C@@H](C)O)C(=O)NCCC5=NC(=CS5)C6=NC(=CS6)C(=O)NCCC[S+](C)C)O [Bleomycin] + C[C@]1(O)C[C@@H](c2nc(-c3ccc4ccc(-c5ccccc5)nc4c3)c3c(N)nccn32)C1 [Linsitinib] (partner 1 µM); settings: main component drawn
How it was run: (§1)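 Lung cancer cell lines were seeded in 1536-well plates and dosed by pin tool the next day, with either a single drug or a fixed anchor-drug dose combined with five library-drug doses (not always all listed) spaced in √10 steps. Five days later, one step fixed the cells and stained their nuclei (final 0.05% Triton X-100, 1% formaldehyde, 1 ug/ml Hoechst), and nuclei were counted on 4× images. Relative viability is the nuclei count in treated wells divided by the count in vehicle wells, and each value is the median of duplicate plates.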

[2] = compound: COc1cc([C@@H]2c3cc4c(cc3[C@@H](O[C@@H]3O[C@@H]5CO[C@@H](C)O[C@H]5[C@H](O)[C@H]3O)[C@H]3COC(=O)[C@H]23)OCO4)cc(OC)c1O [Etoposide] + C[C@@H](Oc1cc(-c2cnn(C3CCNCC3)c2)cnc1N)c1c(Cl)ccc(F)c1Cl [Crizotinib] (partner 1 µM)
How it was run: as §1

[3] = compound: COc1cc([C@@H]2c3cc4c(cc3[C@@H](O[C@@H]3O[C@@H]5CO[C@@H](C)O[C@H]5[C@H](O)[C@H]3O)[C@H]3COC(=O)[C@H]23)OCO4)cc(OC)c1O [Etoposide] + Nc1nc2[nH]cc(CCc3ccc(C(=O)N[C@@H](CCC(=O)O)C(=O)O)cc3)c2c(=O)[nH]1 [Pemetrexed] (partner 0.2 µM)
How it was run: as §1

[4] = compound: COc1cc([C@@H]2c3cc4c(cc3[C@@H](O[C@@H]3O[C@@H]5CO[C@@H](C)O[C@H]5[C@H](O)[C@H]3O)[C@H]3COC(=O)[C@H]23)OCO4)cc(OC)c1O [Etoposide] + O=C(c1cc(Cc2n[nH]c(=O)c3ccccc23)ccc1F)N1CCN(C(=O)C2CC2)CC1 [Olaparib] (partner 8 µM)
How it was run: as §1

Cell Line	relative viability ([1]; first compound 0.01 µM)	relative viability ([1]; first compound 0.03162 µM)	relative viability ([1]; first compound 0.1 µM)	relative viability ([1]; first compound 0.3162 µM)	relative viability ([1]; first compound 1 µM)	relative viability ([2]; first compound 0.01 µM)	relative viability ([2]; first compound 0.03162 µM)	relative viability ([2]; first compound 0.1 µM)	relative viability ([2]; first compound 0.3162 µM)	relative viability ([2]; first compound 1 µM)	relative viability ([3]; first compound 0.01 µM)	relative viability ([3]; first compound 0.03162 µM)	relative viability ([3]; first compound 0.1 µM)	relative viability ([3]; first compound 0.3162 µM)	relative viability ([3]; first compound 1 µM)	relative viability ([4]; first compound 0.01 µM)	relative viability ([4]; first compound 0.03162 µM)	relative viability ([4]; first compound 0.1 µM)	relative viability ([4]; first compound 0.3162 µM)	relative viability ([4]; first compound 1 µM)
HARA	0.944	1.02	0.887	0.457	0.467	0.801	1.11	1.11	0.611	0.192	0.235	0.309	0.25	0.261	0.232	0.698	0.764	0.652	0.376	0.206
PC-14	0.578	0.51	0.309	0.118	0.119	0.957	0.896	0.951	0.728	0.59	0.13	0.141	0.168	0.121	0.106	0.239	0.204	0.31	0.135	0.123
NCI-H1755	0.97	0.992	0.981	0.767	0.618	0.846	0.839	0.931	0.716	0.595	0.468	0.467	0.519	0.41	0.428	0.838	0.945	0.791	0.799	0.422
HCC-78	0.488	0.343	0.343	0.282	0.179	0.31	0.334	0.241	0.227	0.181	0.901	0.954	0.84	0.916	0.906	0.679	0.795	0.553	0.259	0.235
